Data reported in paper PMC7044277 (Nature Communications, 2020).
“And” between values parts separate entries of the source, which are not always exact repeats. Identical values can stand only once.

What was measured:
Type in all cases: cell-based
[1] = molecular target: T1, 320 non-olfactory GPCRs (Homo sapiens, UniProt Q5NUL3)
T1 construct: expressed in transfected cells; host or cells: HTLA cells

[2] = molecular target: T2, 320 non-olfactory GPCRs (Homo sapiens, UniProt P08912)
T2 construct: expressed in transfected cells; host or cells: HTLA cells

[3] = molecular target: T3, 320 non-olfactory GPCRs (Homo sapiens, UniProt P51677)
T3 construct: expressed in transfected cells; host or cells: HTLA cells

[4] = molecular target: 320 non-olfactory GPCRs (Homo sapiens, UniProt P25090)
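Further: compound tested at 1 µM final concentration.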

T1 sequence (Q5NUL3 whole entry): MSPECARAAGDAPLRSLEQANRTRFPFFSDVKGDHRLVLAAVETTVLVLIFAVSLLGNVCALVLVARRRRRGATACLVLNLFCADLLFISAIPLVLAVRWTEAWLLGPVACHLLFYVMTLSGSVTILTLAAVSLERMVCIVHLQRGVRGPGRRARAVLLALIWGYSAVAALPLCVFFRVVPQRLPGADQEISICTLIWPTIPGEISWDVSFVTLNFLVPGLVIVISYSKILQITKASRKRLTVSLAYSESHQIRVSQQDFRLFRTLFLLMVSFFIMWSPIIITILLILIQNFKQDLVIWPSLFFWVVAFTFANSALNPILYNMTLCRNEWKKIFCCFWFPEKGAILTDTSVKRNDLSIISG
T2 sequence (P08912 whole entry): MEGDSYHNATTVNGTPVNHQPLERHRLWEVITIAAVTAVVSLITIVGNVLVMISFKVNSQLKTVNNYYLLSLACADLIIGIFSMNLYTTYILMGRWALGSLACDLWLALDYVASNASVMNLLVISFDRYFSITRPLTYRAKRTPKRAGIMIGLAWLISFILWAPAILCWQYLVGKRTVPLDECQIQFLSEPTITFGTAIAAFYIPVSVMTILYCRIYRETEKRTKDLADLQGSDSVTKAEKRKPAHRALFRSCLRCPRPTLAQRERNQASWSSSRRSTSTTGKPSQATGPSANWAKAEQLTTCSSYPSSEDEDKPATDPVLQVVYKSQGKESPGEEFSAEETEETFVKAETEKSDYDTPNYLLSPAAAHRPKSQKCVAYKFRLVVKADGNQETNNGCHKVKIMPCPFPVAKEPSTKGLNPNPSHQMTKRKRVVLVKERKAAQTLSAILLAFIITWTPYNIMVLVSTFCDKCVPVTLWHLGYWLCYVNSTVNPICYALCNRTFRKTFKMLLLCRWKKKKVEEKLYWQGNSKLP
Sequence of 320 non-olfactory GPCRs (Homo sapiens, UniProt P25090) (P25090 whole entry): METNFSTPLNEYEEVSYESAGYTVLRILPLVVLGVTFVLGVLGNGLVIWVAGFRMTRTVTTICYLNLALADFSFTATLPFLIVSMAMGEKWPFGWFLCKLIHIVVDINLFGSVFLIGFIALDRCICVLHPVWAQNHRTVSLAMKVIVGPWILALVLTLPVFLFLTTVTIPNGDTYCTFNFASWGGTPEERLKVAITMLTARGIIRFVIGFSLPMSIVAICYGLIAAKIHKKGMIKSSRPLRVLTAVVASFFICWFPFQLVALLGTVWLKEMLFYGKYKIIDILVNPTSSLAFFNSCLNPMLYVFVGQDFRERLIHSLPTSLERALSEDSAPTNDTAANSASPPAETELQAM
T3 sequence (P51677 whole entry): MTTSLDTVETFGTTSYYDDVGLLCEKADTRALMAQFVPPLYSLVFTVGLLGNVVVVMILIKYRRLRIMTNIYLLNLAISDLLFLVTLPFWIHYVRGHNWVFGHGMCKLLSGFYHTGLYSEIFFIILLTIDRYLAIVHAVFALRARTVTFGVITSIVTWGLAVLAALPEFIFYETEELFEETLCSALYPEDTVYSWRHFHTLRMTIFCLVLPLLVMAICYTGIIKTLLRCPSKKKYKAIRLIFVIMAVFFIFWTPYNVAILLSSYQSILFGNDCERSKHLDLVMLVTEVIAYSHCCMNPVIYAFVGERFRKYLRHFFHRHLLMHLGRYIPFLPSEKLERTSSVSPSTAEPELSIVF

CCOc1cccc2cc(C(C)NCC3(O)CCCCC3)oc12 (stereo not shown) [O4LE6]
Fold of Basal [1]: 1.4501 and 0.8868 and 0.9227 and 1.231 | Fold of Basal [2]: 0.9113 and 1.052 and 0.8596 and 0.9753 | Fold of Basal [3]: 1.539 and 1.182 and 0.9454 and 0.9656 | Fold of Basal [4]: 1.561 and 1.917 and 2.561 and 1.97
